According to US9808470B2, “Estrogenic components for use in the treatment of neurological disorders” (UNIVERSITE DE LIEGE, priority 2012, dated 2017):

Tests used:
doublecortin (DCX) = test: Ex.3 neuroprotective HIE rat model: doublecortin staining; format: in vivo
Procedure: The sections were heated in 10 mmol/L citrate buffer (pH 6.0) at 100° C. for 10 minutes. Endogenous peroxidase activity was blocked with 3% hydrogen peroxide for 10 minutes and after a second blocking with 5% normal goat serum, the sections were incubated with anti-doublecortin (DCX) antibody, diluted 1:1000 (rabbit polyclonal antibody; Abcam, Cambridge, UK) and anti-vascular endothelial growth factor (VEGF) antibody, diluted 1:100 (mouse monoclonal antibody; Abcam, Cambridge, UK) overnight at 4° C. After rinsing, Alexa Fluor® goat anti-rabbit, diluted 1:1000 and Alexa Fluor® goat anti-mouse, diluted 1:1000 (Invitrogen Inc., Ghent, Belgium) were added and sections were incubated 1 h at room temperature. Mounting medium containing 4′,6-diamidino-2-phenylindole (DAPI) for fluorescent studies was used (Vector Laboratories). Samples were analyzed with the aid of a microscope (Olympus Vanox AHBT3, Olympus), and the ImageJ software (NIH). The percentage of positively stained cells was quantified as a sum of positively stained either DCX or VEGF cells divided by the total number of DAPI positive cells expressed in percentage.
Newborn rat pups were assigned to one of the following 6 groups from postnatal day 4: Sham group (n=24), Vehicle group (n=14), E4 1 mg/kg/per day group (n=11), E4 5 mg/kg/per day group (n=14), E4 10 mg/kg/per day group (n=14), or E4 50 mg/kg/per day group (n=19). From postnatal day 4, rat pups were intraperitoneally injected either vehicle (Vehicle group) or E4 (1, 5, 10, or 50 mg/kg/per day in accordance to the E4 group assignment) or neither vehicle nor E4 (Sham group). At day 7, 30 minutes after last injection, animals were anesthetized with isoflurane (induction, 3.0%; maintenance, 1.5%), and the rat pups from Vehicle and E4 groups passed through surgery encompassing left common carotid artery double ligation and cut. After the procedure, the pups were returned to their dams and were allowed to recover for 1 hour. The pups were then placed in the humidified hypoxic in vivo cabinet (CoyLab, Grass Lake, Mich., USA). Hypoxia was produced by the inhalation of 11%-8% of oxygen balanced by nitrogen at decreased concentration of oxygen for 20 minutes, followed by inhalation of 8% oxygen and 92% nitrogen at constant concentration for 35 minutes. All the manipulations were performed at 37° C. The Sham group went through similar procedures without left common carotid artery ligation followed by hypoxia nor injection. Rat pups recovered with their dams and reared normally until being sacrificed at postnatal day 14.

[1] = system: vascular endothelial growth factor (VEGF); test: Ex.8 therapeutic HIE rat model: VEGF staining; format: in vivo; conditions: 5 mg/kg/day E4, hippocampus (same region)
Procedure: To study the therapeutic effect of estetrol, newborn rat pups were assigned to one of the following 14 groups at postnatal day 7 (FIG. 23(B)): Sham group (n=12), Vehicle (n=15), 5 mg/kg/day E4 (n=11), 10 mg/kg/day E4 (n=11), 5 mg/kg/day E4+1.6 mg/kg/day PROG (n=11), 10 mg/kg/day E4+1.6 mg/kg/day PROG (n=11), 5 mg/kg/day E4+16 mg/kg/day PROG (n=11), 10 mg/kg/day E4+16 mg/kg/day PROG (n=13), 5 mg/kg/day E4+136 ng//kg/day E2 (n=11), 10 mg/kg/day E4+136 ng/kg/day E2 (n=11), 5 mg/kg/day E4+1.6 mg/kg/day PROG+136 ng/kg/day E2 (n=12), 10 mg/kg/day E4+1.6 mg/kg/day PROG+136 ng/kg/day E2 (n=11), 5 mg/kg/day E4+16 mg/kg/day PROG+136 ng/kg/day E2 (n=11), 10 mg/kg/day E4+16 mg/kg/day PROG+136 ng/kg/day (n=12) groups. […] After surgery, the pups were returned to their dams and allowed to recover for 1 hour. The pups were then placed in a humidified hypoxic in vivo cabinet (CoyLab). […]
The sections were heated in 10 mmol/L citrate buffer (pH 6.0) at 100° C. for 10 minutes. […] Samples were analyzed with the aid of a microscope (Olympus Vanox AHBT3, Olympus), and the ImageJ software 15 (NIH). The percentage of positively stained cells was quantified as a sum of positively stained either DCX or VEGF cells divided by the total number of DAPI positive cells expressed in percentage.

C[C@]12CC[C@@H]3c4ccc(O)cc4CC[C@H]3[C@@H]1[C@@H](O)[C@@H](O)[C@@H]2O [E4, 1,3,5(10)-estratrien-3,15α,16α,17β-tetrol]
percentage of DCX positively stained cells (doublecortin (DCX); 5 mg/kg E4 ip PND4-7 before HI, CA1): 35.2±3.309%
percentage of DCX positively stained cells (doublecortin (DCX); 5 mg/kg E4 ip PND4-7 before HI, CA2/CA3): 30.3±3.7%
percentage of DCX positively stained cells (doublecortin (DCX); 10 mg/kg E4 ip PND4-7 before HI, CA1): 34.1±6.664%
percentage of DCX positively stained cells (doublecortin (DCX); 10 mg/kg E4 ip PND4-7 before HI, DG): 55.8±5.658%
percentage of DCX positively stained cells (doublecortin (DCX); 10 mg/kg E4 ip PND4-7 before HI, cortex): 52.1±7.762%
VEGF positively stained cell percentage [1]: 54.05±3.51%
